Test results taken from patent US10406151B2, “Method of inducing autophagy” (Mitsubishi Gas Chemical Company, Inc., priority 2016, dated 2019).

How the values were obtained:
[1] = system: HeLa cells; assay: Evaluation of autophagy by fluorescence microscopy with Cyto-ID autophagy detection kit; format: cell-based; details: culture for 1 day, fluorescence intensity same as rapamycin of the kit as reference
Protocol: (§1) The cells were cultured at 37° C. under 5% CO2. The culture medium used was D-MEM (Invitrogen-Gibco) to which 10% fetal bovine serum was added.
(§2) After culture for 1 day, the range in which autophagy occurred was measured by fluorescence microscopic observation using a Cyto-ID (registered trademark) autophagy detection kit (Cosmo Bio Co., Ltd.). […] Similarly, the 50% cell mortality concentration was also determined from the slope using a Cell Counting Kit-8 (Dojindo Laboratories Co., Ltd.), which is kit for measuring cell counts.

[2] = system: HeLa cells; details: for 50% cell mortality concentration: culture for 1 day, determined from the slope, Cell Counting Kit-8
Protocol: as §1, §2

## O=C(O)c1cc(C(=O)O)c2c(n1)C(=O)C(=O)c1cc(C(=O)O)[nH]c1-2 [Example 1, Disodium 4,5-Dioxo-4,5-dihydro-1H-pyrrolo[2,3-f]quinoline-2,7,9-tricarboxylic Acid]
[1]
  concentration inducing autophagy equal to rapamycin reference: 0.8 mg/L
[2]
  50% cell mortality concentration: 123 mg/L

## C[S+](C)[O-] [comparative example 1, dimethyl sulfoxide, reference compound]
[1]
  concentration inducing autophagy equal to rapamycin reference: at least 1000 mg/L
[2]
  50% cell mortality concentration: 674 mg/L

## O=C(O)c1cc(C(=O)O)c2c(n1)c(O)c(O)c1cc(C(=O)O)[nH]c12 [Example 3, 4,5-Dihydroxy-1H-pyrrolo[2,3-f]quinoline-2,7,9-tricarboxylic Acid]
[1]
  concentration inducing autophagy equal to rapamycin reference: 12.5 mg/L
[2]
  50% cell mortality concentration: 48 mg/L

## COC(=O)c1cc(C(=O)OC)c2c(n1)C(=O)C(=O)c1cc(C(=O)OC)[nH]c1-2 [Example 2, Trimethyl 4,5-Dioxo-4,5-dihydro-1H-pyrrolo[2,3-f]quinoline-2,7,9-tricarboxylate]
[1]
  concentration inducing autophagy equal to rapamycin reference: 0.8 mg/L
[2]
  50% cell mortality concentration: 16 mg/L

## COC(=O)c1cc(C(=O)OC)c2c(n1)C(=O)C(OC)(OC)c1cc(C(=O)OC)[nH]c1-2 [Example 5, Trimethyl 4,4-Dimethoxy-5-oxo-4,5-dihydro-1H-pyrrolo[2,3-f]quinoline-2,7,9-tricarboxylate]
[1]
  concentration inducing autophagy equal to rapamycin reference: 0.8 mg/L
[2]; conclusion from Table 1
  toxicity among the pyrroloquinoline quinone species (in words): lowest toxicity
[2]
  50% cell mortality concentration: at least 1000 mg/L
